Experimental findings from paper PMC3199943, “Screening the MayBridge Rule of 3 Fragment Library for Compounds That Interact with the Trypanosoma brucei myo-Inositol-3-Phosphate Synthase and/or Show Trypanocidal Activity” (Molecular Biology International, 2011) are described below.

One assay concerns HeLa cells. Kind of assay: cells. Particulars: for viability at 500 µM: Homo sapiens, HeLa, 65 h; for HeLa Cells Alamar Blue: Supplementary Table 1. The procedure, abridged: (§1)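 Viability by Alamar Blue (5 h) after ~65 h drug treatment; seeding density 2 × 10^4 cells/well in DMEM supplemented with 10% FCS and 2 mM L-Glutamine.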
On the technique in general: The colour change of resazurin is a common sign of viable cells or microbes.

Another assay concerns A549 cells. Kind of assay: Cytotoxicity against A549 cells, Alamar Blue. Type of assay: cell-based. Particulars: Supplementary Table 1, compound 0.5 mM, percentage of controls (n=1); for viability at 500 µM: Homo sapiens, A549, 65 h. The procedure, abridged: as §1
The mark [1] stands for this setting: read-out: HeLa Cells Alamar Blue.
[2] abbreviates: compound 0.5 mM, percentage of controls, mean ± SD (n=3) or SE (n=2).
Setting [3] is: read-out: HeLa Cells Alamar Blue, Supplementary Table 1, compound 0.5 mM, percentage of controls, mean ± SD (n=3) or SE (n=2).

Like-named read-outs stand apart in the source and are kept apart here.

Consider `OCc1ccc(-c2cncnc2)cc1` [compound 505, (4‐pyrimidin‐5‐ylphenyl)methanol], for which the viability at 500 µM is 78.6 ± 20% in the assay with HeLa cells (setting [1]) and 85.3% with A549 cells.

For the compound `Nc1ccc(Oc2ccccc2)nc1` [compound 507, 6‐phenoxy‐3‐pyridinamine], the viability at 500 µM with HeLa cells (setting [1]) turned out to be 103 ± 15.4%; in the assay with A549 cells, 71.8%.

`O=C(O)c1ccc(-n2cccc2)cc1` [compound 512, 4‐(1H‐pyrrol‐1‐yl)benzoic acid]: the viability at 500 µM in the assay with HeLa cells (setting [1]) turned out to be 97.5 ± 13.1%; with A549 cells, 63.2%.

Turning to `COC(=O)c1cc2ccccc2cn1` [compound 514, methyl isoquinoline‐3‐carboxylate], the viability at 500 µM amounted to 79.5 ± 14.3% with HeLa cells (setting [1]) and 65.3% in the assay on A549 cells.

For the compound `COC(=O)c1ccc2ncccc2c1` [compound 515, methyl quinoline‐6‐carboxylate], the viability at 500 µM is 69.9 ± 8.1% in the assay on HeLa cells (setting [1]) and 67.8% in the assay on A549 cells.

Turning to `N#Cc1ccc(N2CCNCC2)cc1` [compound 518, 4‐Piperazin‐1‐yl‐benzonitrile], the viability at 500 µM in the assay with HeLa cells (setting [1]) amounted to 92.1 ± 11%; with A549 cells, 84.7%.

For `NC(=O)Cc1ccc(F)cc1Cl` [compound 519, 2‐(2‐chloro‐4‐fluorophenyl)acetamide], the viability at 500 µM in the assay on HeLa cells (setting [1]) came to 98.3 ± 15.4%; in the assay with A549 cells it was 102%.

With `Cc1c(CO)cnn1-c1ccccc1` [compound 523, (5‐methyl‐1‐phenyl‐1H‐pyrazol‐4‐yl)methanol], in the assay on HeLa cells (setting [2]), the “HeLa Cells Alamar Blue” value is given as 75.9 ± 13.5 percentage of controls. For the same compound, the “A549 Cells Alamar Blue” value with A549 cells is 57.2 percentage of controls.

`Cn1nc(-c2ccccc2)cc1CO` [compound 524, (1‐methyl‐3‐phenyl‐1H‐pyrazol‐5‐yl)methanol]: the “HeLa Cells Alamar Blue” value in the assay with HeLa cells (setting [2]) is reported as 88.2 ± 10.3 percentage of controls. Further, the “A549 Cells Alamar Blue” value with A549 cells is listed as 60.7 percentage of controls.

With `Cn1nc(CO)cc1-c1ccccc1` [compound 525, (1‐methyl‐5‐phenyl‐1H‐pyrazol‐3‐yl)methanol], the “HeLa Cells Alamar Blue” value with HeLa cells (setting [2]) was 64.8 ± 9.8 percentage of controls. The “A549 Cells Alamar Blue” value with A549 cells is listed as 64.6 percentage of controls.

Regarding `OCc1nccn1Cc1ccccc1` [compound 526, (1‐benzyl‐1H‐imidazol‐2‐yl)methanol], the viability at 500 µM came out at 81 ± 13.3% with HeLa cells (setting [1]) and 58% in the assay on A549 cells.

With `OCc1cccc(Cn2ccnc2)c1` [compound 527, [3‐(1H‐imidazol‐1‐ylmethyl)phenyl]methanol], the “HeLa Cells Alamar Blue” value with HeLa cells (setting [2]) was 80.7 ± 17.6 percentage of controls. Further, the “A549 Cells Alamar Blue” value with A549 cells is on record as 69.2 percentage of controls.

As to `OCc1ccc(Cn2ccnc2)cc1` [compound 528, [4‐(1H‐imidazol‐1‐ylmethyl)phenyl]methanol], the “HeLa Cells Alamar Blue” value with HeLa cells (setting [2]) was 90.8 ± 4.5 percentage of controls. Moreover, the “A549 Cells Alamar Blue” value in the assay on A549 cells is on record as 81.2 percentage of controls.

`OCc1ccc(Cn2cccn2)cc1` [compound 529, [4‐(1H‐pyrazol‐1‐ylmethyl)phenyl]methanol]: the “HeLa Cells Alamar Blue” value in the assay with HeLa cells (setting [2]) is 85 ± 5.2 percentage of controls. Further, the “A549 Cells Alamar Blue” value in the assay with A549 cells is recorded as 94 percentage of controls.

Take `Cn1ncc(CO)c1-c1ccccc1` [compound 530, (1‐methyl‐5‐phenyl‐1H‐pyrazol‐4‐yl)methanol]: the “HeLa Cells Alamar Blue” value with HeLa cells (setting [2]) is on record as 87.4 ± 6.2 percentage of controls. Moreover, the “A549 Cells Alamar Blue” value in the assay with A549 cells was 109.5 percentage of controls.

For `Cc1onc(-c2ccccc2)c1CO` [compound 534, (5‐methyl‐3‐phenyl‐4‐isoxazolyl)methanol], the viability at 500 µM was 78.8 ± 15.6% in the assay on HeLa cells (setting [1]) and 62.9% with A549 cells.

Turning to `O=C(O)c1ccc(C(F)(F)F)cc1` [compound 539, 4‐(trifluoromethyl)benzoic acid], the viability at 500 µM is 92.4 ± 8.2% in the assay with HeLa cells (setting [1]) and 104% with A549 cells.

In the case of `OCc1ccc(Oc2ccccc2)o1` [compound 540, (5‐phenoxy‐2‐furyl)methanol], the viability at 500 µM in the assay with HeLa cells (setting [1]) was found to be 13.7 ± 6.5%; in the assay on A549 cells, 57.7%.

As to `CN(C)CCOc1ccc(C#N)cc1` [compound 542, 4‐[2‐(dimethylamino)ethoxy]benzonitrile], the viability at 500 µM with HeLa cells (setting [1]) stood at 91.6 ± 9.5%; with A549 cells, 69.7%.

As for `OCc1ccccc1-c1cccs1` [compound 543, (2‐thien‐2‐ylphenyl)methanol], the values for the viability at 500 µM in the assay with HeLa cells (setting [1]) and in the assay on A549 cells were 73.9 ± 3.7% and 56.5%, respectively.

Turning to `OCc1ccc(-c2ccsc2)cc1` [compound 545, (4‐thien‐3‐ylphenyl)methanol], the viability at 500 µM in the assay on HeLa cells (setting [1]) is 84.3 ± 13.2%; in the assay with A549 cells, 87.2%.

Take `Cc1nc(-c2cccc(N)c2)cs1` [compound 546, 3‐(2‐methyl‐1,3‐thiazol‐4‐yl)aniline]: the viability at 500 µM worked out at 68.5 ± 8.2% with HeLa cells (setting [1]) and 61.9% in the assay on A549 cells.

With `NC1CCN(Cc2ccccc2)CC1` [compound 548, 1‐benzylpiperidin‐4‐amine], the viability at 500 µM with HeLa cells (setting [1]) came to 39.5 ± 10%; with A549 cells, 89.3%.

Regarding `Cc1cccc(N2CCNCC2)c1C` [compound 549, 1‐(2,3‐dimethylphenyl)piperazine], the viability at 500 µM in the assay with HeLa cells (setting [1]) was found to be 10.1 ± 5.7%; with A549 cells, 13.6%.

Consider `COC(=O)c1scc(C)c1Cl` [compound 551, methyl 3‐chloro‐4‐methylthiophene‐2‐carboxylate], for which the “HeLa Cells Alamar Blue” value in the assay with HeLa cells (setting [2]) is 90.7 ± 10.3 percentage of controls. In addition, the “A549 Cells Alamar Blue” value in the assay with A549 cells is recorded as 104.9 percentage of controls.

`OCc1csc(-c2ccccc2)n1` [compound 557, (2‐phenyl‐1,3‐thiazol‐4‐yl)methanol]: the viability at 500 µM worked out at 58.1 ± 13.4% in the assay on HeLa cells (setting [1]) and 78.4% in the assay on A549 cells.

Take `COc1ccccc1C1CCNCC1` [compound 560, 4‐(2‐methoxyphenyl)piperidine]: the values for the viability at 500 µM in the assay on HeLa cells (setting [1]) and with A549 cells were 20.2 ± 2.8% and 63.7%, respectively.

Turning to `CN1CCN(c2ccc(N)cc2)CC1` [compound 562, 4‐(4‐methylpiperazino)aniline], the viability at 500 µM was determined as 8.2 ± 6.5% with HeLa cells (setting [1]) and 17.5% in the assay on A549 cells.

On to `Nc1nc(-c2ccc(O)cc2)cs1` [compound 565, 4‐(2‐amino‐1,3‐thiazol‐4‐yl)phenol], for which the viability at 500 µM in the assay on HeLa cells (setting [3]) was 57.7 ± 17.7%; in the assay on A549 cells it was 61.6%.

`NS(=O)(=O)c1ccc(F)cc1F` [compound 576, 2,4‐difluorobenzenesulfonamide]: the viability at 500 µM turned out to be 10.7 ± 9.3% in the assay with HeLa cells (setting [1]) and 12.9% with A549 cells.

For `Oc1ccc(SC(F)(F)F)cc1` [compound 584, 4‐[(trifluoromethyl)thio]phenol], the viability at 500 µM in the assay on HeLa cells (setting [1]) amounted to 97.5 ± 15.9%; in the assay on A549 cells, 68.4%.

For the compound `CCOC(=O)CCc1ccc(O)cc1` [compound 585, ethyl 3‐(4‐hydroxyphenyl)propanoate], the viability at 500 µM with HeLa cells (setting [1]) was determined as 63.1 ± 3.9%; with A549 cells it was 61.7%.

As to `Cn1nc(CO)cc1-c1cccs1` [compound 586, (1‐methyl‐5‐thien‐2‐yl‐1H‐pyrazol‐3‐yl)methanol], the “HeLa Cells Alamar Blue” value with HeLa cells (setting [2]) is 82 ± 15.2 percentage of controls. Besides, in the assay on A549 cells, the “A549 Cells Alamar Blue” value is recorded as 63.4 percentage of controls.

`O=C(O)CC12CC3CC(CC(C3)C1)C2` [compound 588, 2‐(1‐adamantyl)acetic acid]: the viability at 500 µM is 95.4 ± 14.1% with HeLa cells (setting [1]) and 85.4% with A549 cells.

Take `CC(=O)c1cc2cc(Cl)ccc2o1` [compound 589, 1‐(5‐chlorobenzo[b]furan‐2‐yl)ethan‐1‐one]: the “HeLa Cells Alamar Blue” value in the assay with HeLa cells (setting [2]) is reported as 95.8 ± 12.5 percentage of controls. Moreover, the “A549 Cells Alamar Blue” value in the assay on A549 cells is on record as 99.5 percentage of controls.

On to `OCc1csc2ccc(Cl)cc12` [compound 608, (5‐chloro‐1‐benzothiophen‐3‐yl)methanol], for which the viability at 500 µM in the assay with HeLa cells (setting [1]) stood at 78.3 ± 1%; in the assay on A549 cells it was 63.8%.

For `O=C(O)c1ccc(-c2cccnc2)cc1` [compound 612, 4‐pyrid‐3‐ylbenzoic acid], the viability at 500 µM is 77.2 ± 5.7% with HeLa cells (setting [3]) and 74.2% in the assay with A549 cells.

`Nc1cccc(COc2ccccc2)c1` [compound 616, 3‐(phenoxymethyl)aniline]: the results for the viability at 500 µM in the assay with HeLa cells (setting [1]) and with A549 cells were 80.5 ± 17.9% and 57.5%, respectively.

As for `OCc1ccccc1Oc1ccccc1` [compound 621, (2‐phenoxyphenyl)methanol], the results for the viability at 500 µM in the assay with HeLa cells (setting [1]) and with A549 cells were 74.9 ± 14.8% and 73.7%, respectively.

Consider `OCc1ccc(Oc2ccccc2)cc1` [compound 622, (4‐phenoxyphenyl)methanol], for which the viability at 500 µM was determined as 78.3 ± 15.4% with HeLa cells (setting [1]) and 70.7% with A549 cells.

In the case of `Cc1nc(-c2ccccc2)ncc1CO` [compound 623, (4‐methyl‐2‐phenyl‐5‐pyrimidinyl)methanol], in the assay with HeLa cells (setting [2]), the “HeLa Cells Alamar Blue” value was 66.5 ± 11.6 percentage of controls. Moreover, in the assay on A549 cells, the “A549 Cells Alamar Blue” value is 85.4 percentage of controls.

`Nc1ncccc1OCc1ccccc1` [compound 624, 3‐(benzyloxy)pyridin‐2‐amine]: the viability at 500 µM in the assay with HeLa cells (setting [3]) is 72.9 ± 14.8%; in the assay on A549 cells, 82.7%.

Turning to `OCc1ccc(Oc2ccccn2)cc1` [compound 629, [4‐(pyrid‐2‐yloxy)phenyl]methanol], the viability at 500 µM with HeLa cells (setting [1]) was determined as 84.1 ± 9.9%; in the assay on A549 cells it was 96.1%.

`OCc1cccc(Oc2ccccn2)c1` [compound 630, [3‐(pyrid‐2‐yloxy)phenyl]methanol]: the viability at 500 µM was found to be 80 ± 1% with HeLa cells (setting [1]) and 98.3% in the assay on A549 cells.

Turning to `NC(=S)COc1cccc(Cl)c1` [compound 633, 2‐(3‐chlorophenoxy)ethanethioamide], the viability at 500 µM in the assay on HeLa cells (setting [1]) was found to be 46.9 ± 11.1%; in the assay with A549 cells it was 90.3%.

`Cc1nn(-c2ccccc2)c(C)c1CO` [compound 636, (3,5‐dimethyl‐1‐phenyl‐1H‐pyrazol‐4‐yl)methanol]: in the assay with HeLa cells (setting [2]), the “HeLa Cells Alamar Blue” value was 73 ± 13.4 percentage of controls. Besides, in the assay with A549 cells, the “A549 Cells Alamar Blue” value is listed as 94.9 percentage of controls.
